Patent publication US20070078058A1, “Use of MCPP to inhibit tuber sprouting” (ACETO AGRICULTURAL CHEMICALS CORP., priority 2005, published 2007)

Legend:
Russet Burbank potatoes = assay: Sprout inhibition of stored Russet Burbank potatoes (second trial, 46 degrees F.), thermal fogs and liquid sprays; assay type: in vivo, Solanum tuberosum
Description: (§1) The storage system was designed to duplicate a large commercial storage facility in miniature. Drums containing 150-200 pounds of potatoes were sealed and housed in a building in which temperature was maintained throughout the testing period at 54 degrees F. for the first summer trial with Norkotah potatoes and 46 degrees F. for the Russet Burbank potatoes in the second trial. During both trials the humidity was maintained at […]. Formed in each drum is an inlet in which untreated air (ventilation air) was introduced under a perforated floor to the drum. The ventilation air moves through the pile of potatoes and is exhausted from the top of the drum to the outside of the building.
(§2) This storage ventilation was shut down for a 24 hour duration during and directly after the treatment of the chemicals. Then it is maintained for the duration of the trial, with ventilation air forced through the drums at a rate of 0.5 cubic feet per minute on a three-hour on and a three-hour off schedule.
(§3) In the spray application technique the formulations were mixed with water and sprayed on the newly harvested tubers at a rate of 5 and 10 parts per million (weight of the active to weight of the potatoes) mixed in a water carrier. The mixture was applied at 1 quart per ton of potatoes. The spray was applied via a hand held spray gun propelled with compressed air as the tubers were rotating in a cement mixer drum. This insured that all surface area is coated with the active ingredient.
(§4) The custom thermal fogger's heat source was an electric hot plate set at 500 degrees F. This temperature is monitored throughout the application with a thermal couple that is inserted in a cavity just below the surface where the chemical is placed. A chamber was attached to the hot plate. A fan was mounted to the top of the chamber. The fogger was attached to the storage container with flexible tubing.
(§5) The fog was delivered to each drum through separate ports. Through the bottom port of the storage drum a perforated stinger was installed that runs the length of the drum. Flexible tubing delivered the fog air mixture from the fogger. The fog air mixture was returned to the thermal fogger through a second flexible tubing that was attached from the top of the storage drum to the bottom of the thermal fogger. The air fog mixture was re-circulated through the system for five minutes.
Russet Burbank potatoes were selected for the second trial. The Russet Burbank is noted for its long term storability and is one of the most popular cultivars used for storage as it can be used as both a fresh pack potato and also has very desirable processing qualities.
(§6) The potatoes were monitored for sprout activity on a regular basis after treatment. When early sprout activity was observed the potatoes were first evaluated. Then at approximately 30 day intervals, 60 tubers were randomly selected from each treatment. Each tuber was rated for the length of the longest sprout on each tuber. The scale used for the rating system as is follows: • 0—Not Peeping=no sprout or swelling of eye tissue evident. • 1—Peeping=swelling of eye tissue up to a sprout length of 3 mm • 2—sprout length from 3 mm to 1 cm. • 3—sprout length from 1 cm to 3 cm. • 4—sprout length from 3 cm to 5 cm. • 5—sprout length from 5 cm and longer
(§7) Results of each set of 60 tubers were recorded into 6 subsets of 10 tubers each (replicates). Each set is summarized as a percent. The data is also summarized into AVERAGE SPROUT LENGTH and PERCENT OK RE: FRESHPCK (Fresh pack).
(§8) The PERCENT OK RE: FRESHPCK is the percent of the tubers that are NOT PEEPING and PEEPING categories combined together.
(§9) The MCPP spray was a MCPP potassium salt providing 2.5 pounds active ingredient per gallon of inert ingredients (water/coformulants). […]

Russet Norkotah potatoes = assay: Sprout inhibition of stored Russet Norkotah potatoes (first trial, 54 degrees F.); assay type: in vivo, Solanum tuberosum
Description: as §1, §2, §3
All of the treatments in the reported test on Russet Norkotah used this technique with the exception of Untreated and CIPC A (CIPC 98A) that was thermal fogged.
as §4, §5
Russet Norkotah potatoes were selected for the first trial for their short natural dormancy and aggressive sprouting.
as §6, §7, §8, §9

[1] = Concentration analysis: amounts recovered on the whole potato; conditions: thermal fog application
Description: Much better results were obtained with the spray applications compared to the thermal fog applications of MCPP, believed to be due to the fact that we established a higher concentration on the tuber via spray.
For example, for spray and thermal fog application, amounts recovered on the whole potato approximately four months later were as follows: MCPP10 ppm applied via thermal fog=0.038 ppm MCPP10 ppm applied via liquid spray=6.3 ppm

[2] = 5 ppm Fog, 132 days after harvest
[3] = 5 ppm Fog, 161 days after harvest
[4] = 5 ppm Fog, 191 days after harvest
[5] = 5 ppm Fog, 223 days after harvest
[6] = 5 ppm Fog, 252 days after harvest
[7] = 5 ppm Fog, 283 days after harvest
[8] = 5 ppm Spray, 132 days after harvest
[9] = 5 ppm Spray, 161 days after harvest
[10] = 5 ppm Spray, 191 days after harvest
[11] = 5 ppm Spray, 223 days after harvest
[12] = 5 ppm Spray, 252 days after harvest
[13] = 5 ppm Spray, 283 days after harvest
[14] = 11 ppm Fog, 132 days after harvest
[15] = 11 ppm Fog, 161 days after harvest
[16] = 11 ppm Fog, 191 days after harvest
[17] = 11 ppm Fog, 223 days after harvest
[18] = 11 ppm Fog, 252 days after harvest
[19] = 11 ppm Fog, 283 days after harvest

Molecule | % OK For Fresh Pack Dormant + sprout up to 3 mm (Russet Burbank potatoes; [2]) | % OK For Fresh Pack Dormant + sprout up to 3 mm (Russet Burbank potatoes; [3]) | % OK For Fresh Pack Dormant + sprout up to 3 mm (Russet Burbank potatoes; [4]) | % OK For Fresh Pack Dormant + sprout up to 3 mm (Russet Burbank potatoes; [5]) | % OK For Fresh Pack Dormant + sprout up to 3 mm (Russet Burbank potatoes; [6]) | % OK For Fresh Pack Dormant + sprout up to 3 mm (Russet Burbank potatoes; [7]) | % OK For Fresh Pack Dormant + sprout up to 3 mm (Russet Burbank potatoes; [8]) | % OK For Fresh Pack Dormant + sprout up to 3 mm (Russet Burbank potatoes; [9]) | % OK For Fresh Pack Dormant + sprout up to 3 mm (Russet Burbank potatoes; [10]) | % OK For Fresh Pack Dormant + sprout up to 3 mm (Russet Burbank potatoes; [11]) | % OK For Fresh Pack Dormant + sprout up to 3 mm (Russet Burbank potatoes; [12]) | % OK For Fresh Pack Dormant + sprout up to 3 mm (Russet Burbank potatoes; [13]) | % OK for Fresh Pack Dormant + sprout up to 3 mm (Russet Norkotah potatoes; 5 ppm Spray, 53 DAH) | % OK for Fresh Pack Dormant + sprout up to 3 mm (Russet Norkotah potatoes; 5 ppm Spray, 85 DAH) | % OK for Fresh Pack Dormant + sprout up to 3 mm (Russet Norkotah potatoes; 5 ppm Spray, 107 DAH) | % OK for Fresh Pack Dormant + sprout up to 3 mm (Russet Norkotah potatoes; 10 ppm Spray, 53 DAH) | % OK for Fresh Pack Dormant + sprout up to 3 mm (Russet Norkotah potatoes; 10 ppm Spray, 85 DAH) | % OK for Fresh Pack Dormant + sprout up to 3 mm (Russet Norkotah potatoes; 10 ppm Spray, 107 DAH) | % OK For Fresh Pack Dormant + sprout up to 3 mm (Russet Burbank potatoes; [14]) | % OK For Fresh Pack Dormant + sprout up to 3 mm (Russet Burbank potatoes; [15]) | also measured
O=C(O)COc1ccc(Cl)cc1Cl [2,4 D Acid, (2,4-(dichlorophenoxy)-acetic acid, reference compound] | 100.0% | 16.7% | 0.0% | 0.0% | 0.0% | 0.0% | – | – | – | – | – | – | – | – | – | – | – | – | – | – | –
CCCCC(CC)COC(=O)COc1ccc(Cl)cc1Cl (stereo not shown) [2,4 D LV, Isooctyl (2-ethylhexyl) ester of 2,4-Dichlorphenoxyacetic acid] | – | – | – | – | – | – | 96.7% | 30.0% | 8.3% | 0.0% | 0.0% | 0.0% | – | – | – | – | – | – | – | – | –
O=C(O)CCCOc1ccc(Cl)cc1Cl [2,4 DB] | – | – | – | – | – | – | – | – | – | – | – | – | 81.7% | 3.3% | 0.0% | 91.7% | 11.7% | 0.0% | – | – | –
CC(C)OC(=O)Nc1cccc(Cl)c1 [CIPC 98A, isopropyl 3-chlorophenylcarbamate, reference compound] | – | – | – | – | – | – | – | – | – | – | – | – | – | – | – | – | – | – | 100.0% | 26.7% | % OK For Fresh Pack Dormant + sprout up to 3 mm (Russet Burbank potatoes; [16]): 0.0%; % OK For Fresh Pack Dormant + sprout up to 3 mm (Russet Burbank potatoes; [17]): 0.0%; % OK For Fresh Pack Dormant + sprout up to 3 mm (Russet Burbank potatoes; [18]): 0.0%; % OK For Fresh Pack Dormant + sprout up to 3 mm (Russet Burbank potatoes; [19]): 0.0%; % OK For Fresh Pack Dormant + sprout up to 3 mm (Russet Burbank potatoes; 16.6 ppm Fog, 132 days after harvest): 100.0%; % OK For Fresh Pack Dormant + sprout up to 3 mm (Russet Burbank potatoes; 16.6 ppm Fog, 161 days after harvest): 26.7%; % OK For Fresh Pack Dormant + sprout up to 3 mm (Russet Burbank potatoes; 16.6 ppm Fog, 191 days after harvest): 0.0%; % OK For Fresh Pack Dormant + sprout up to 3 mm (Russet Burbank potatoes; 16.6 ppm Fog, 223 days after harvest): 0.0%; % OK For Fresh Pack Dormant + sprout up to 3 mm (Russet Burbank potatoes; 16.6 ppm Fog, 252 days after harvest): 0.0%; % OK For Fresh Pack Dormant + sprout up to 3 mm (Russet Burbank potatoes; 16.6 ppm Fog, 283 days after harvest): 0.0%; % OK for Fresh Pack Dormant + sprout up to 3 mm (Russet Norkotah potatoes; 16.6 ppm Fog, 53 DAH): 100.0%; % OK for Fresh Pack Dormant + sprout up to 3 mm (Russet Norkotah potatoes; 16.6 ppm Fog, 85 DAH): 86.7%; % OK for Fresh Pack Dormant + sprout up to 3 mm (Russet Norkotah potatoes; 16.6 ppm Fog, 107 DAH): 86.7%
Cc1cc(Cl)ccc1OC(C)C(=O)O (stereo not shown) [MCPP, 2-(4-Chloro-2-methylphenoxy)propanoic acid] | 93.3% | 3.3% | 0.0% | 0.0% | 0.0% | 0.0% | 100.0% | 95.0% | 73.3% | 38.3% | 6.7% | 5.0% | 98.3% | 53.3% | 1.7% | 100.0% | 71.7% | 25.0% | – | – | % OK For Fresh Pack Dormant + sprout up to 3 mm (Russet Burbank potatoes; 10 ppm Fog, 132 days after harvest): 100.0%; % OK For Fresh Pack Dormant + sprout up to 3 mm (Russet Burbank potatoes; 10 ppm Fog, 161 days after harvest): 15.0%; % OK For Fresh Pack Dormant + sprout up to 3 mm (Russet Burbank potatoes; 10 ppm Fog, 191 days after harvest): 0.0%; % OK For Fresh Pack Dormant + sprout up to 3 mm (Russet Burbank potatoes; 10 ppm Fog, 223 days after harvest): 0.0%; % OK For Fresh Pack Dormant + sprout up to 3 mm (Russet Burbank potatoes; 10 ppm Fog, 252 days after harvest): 0.0%; % OK For Fresh Pack Dormant + sprout up to 3 mm (Russet Burbank potatoes; 10 ppm Fog, 283 days after harvest): 0.0%; % OK For Fresh Pack Dormant + sprout up to 3 mm (Russet Burbank potatoes; 10 ppm Spray, 132 days after harvest): 100.0%; % OK For Fresh Pack Dormant + sprout up to 3 mm (Russet Burbank potatoes; 10 ppm Spray, 161 days after harvest): 100.0%; % OK For Fresh Pack Dormant + sprout up to 3 mm (Russet Burbank potatoes; 10 ppm Spray, 191 days after harvest): 90.0%; % OK For Fresh Pack Dormant + sprout up to 3 mm (Russet Burbank potatoes; 10 ppm Spray, 223 days after harvest): 65.0%; % OK For Fresh Pack Dormant + sprout up to 3 mm (Russet Burbank potatoes; 10 ppm Spray, 252 days after harvest): 20.0%; % OK For Fresh Pack Dormant + sprout up to 3 mm (Russet Burbank potatoes; 10 ppm Spray, 283 days after harvest): 10.0%; stability when exposed to heat [1]: break down rapidly when exposed to heat
Diisopropylnaphthalene [DIPN, reference compound] | – | – | – | – | – | – | – | – | – | – | – | – | – | – | – | – | – | – | 56.7% | 15% | % OK For Fresh Pack Dormant + sprout up to 3 mm (Russet Burbank potatoes; [16]): 0%; % OK For Fresh Pack Dormant + sprout up to 3 mm (Russet Burbank potatoes; [17]): 0%; % OK For Fresh Pack Dormant + sprout up to 3 mm (Russet Burbank potatoes; [18]): 0%; % OK For Fresh Pack Dormant + sprout up to 3 mm (Russet Burbank potatoes; [19]): 0%
